Test system: T1, catechol 1,2-dioxygenase (C12O) from PcUFB2; identified by ES-MS as homogentisate 1,2-dioxygenase (H12D)
T1 construct: gene hmgA; native purification from UFB2 cells grown on phenol (ANX anion exchange, Sephacryl HR100); 35 kDa on SDS-PAGE
Test: UV spectrophotometry, cis,cis-muconic acid at […] nm; Lineweaver-Burk / Michaelis-Menten fit
Assay type: biochemical, Pseudomonas chlororaphis
Settings: 50 mM sodium phosphate pH 8, 30 °C, 30 min, 0-500 µM catechol

**Q.** For `Oc1ccccc1O` [catechol], which Km is on record?
**A.** The Km was 35.8 µM.
